Patent US20130143886A1, “METHODS FOR PRESERVING AND/OR INCREASING RENAL FUNCTION USING XANTHINE OXIDOREDUCTASE INHIBITORS” (priority 2006, published 2013)
“Also recorded” adds a separate entry of the source.

Tested on: remnant kidney (RK) rats
Assay: Renal arteriolar morphology
Assay type: in vivo, Male Wistar rats
Method: Male Wistar rats (295-340 g) were used to produce rats with remnant kidney (RK) as follows. […] Rats were then assigned to one of four treatment groups: Group 1, RK control rats (n=7); Group 2, RK+febuxostat (Fx) rats (n=8); Group 3, RK+oxonic acid (OA) rats (n=6); and Group 4, RK+OA+Fx (n=10). Oxonic acid (OA) (Sigma-Aldrich, St Louis Mo., USA), administered at 750 mg/kg body weight daily by oral gavage, was given starting the day after the 5⁄6 nephrectomy. Beginning immediately following the surgery, febuxostat was administered in drinking water at 30 mg/L (3-4 mg/kg/day), whereas the respective controls received only drinking water (with 3.5 mg/L of NaCl added to keep an equivalent salt concentration to the Fx-containing water). After the micropuncture study, kidneys were washed by perfusion with phosphate-buffered saline and then fixed with 4% paraformaldehyde. Renal biopsies were embedded in paraffin. Sections of 4-μm thick fixed tissue were stained with periodic acid Schiff (PAS) reagent and Masson's trichrome staining. Arteriolar morphology was assessed by indirect peroxidase immunostaining for alpha-smooth muscle actin (DAKO Corp, Carpinteria, Calif., USA). Renal sections incubated with normal rabbit serum were used as negative controls for immunostaining against alpha smooth-muscle actin. For each arteriole, the outline of the vessel and its internal lumen (excluding the endothelium) were generated using computer analysis to calculate the total medial area (outline inline), in 10 arterioles per biopsy. The media/lumen ratio was calculated by the outline/inline relationship (See, Sanchez-Lozada L G et al., “Mild hyperuricemia induces glomerular hypertension in normal rats”, Am J Physiol Renal Physiol 283:[…]-[…] (2002); Sanchez-Lozada L G, et al., “Mild hyperuricemia induces vasoconstriction and maintains glomerular hypertension in normal and remnant kidney rats,” Kidney Int 67:237-247 (2005), the contents of each are herein incorporated by reference). Quantifications were performed blinded.

SMILES: Cc1nc(-c2ccc(OCC(C)C)c(C#N)c2)sc1C(=O)O [febuxostat, 2-[3-cyano-4-(2-methylpropoxy)phenyl]-4-methylthiazole-5-carboxylic acid]
- Thickening of preglomerular vessels / afferent arteriole (in words) (RK rats vs RK control group): prevented the thickening of preglomerular vessels
- Additional thickening of the afferent arteriole (in words) (RK+OA rats treated with febuxostat): prevented
- Media/lumen (M/L) ratio (in words) (febuxostat-treated rats vs respective untreated cohorts): no statistically significant differences; also recorded: tendency for the M/L ratio to be lower
